Experimental data as given in ChEMBL document CHEMBL3352643, “Synthesis and antiproliferative activity of 6-phenylaminopurines” (Eur J Med Chem, 2014).

Key:
Type in all cases: functional
HeLa [1] = test: Induction of cell cycle arrest in human HeLa cells assessed as accumulation at subG1 phase at 100 uM after 24 hrs by propidium iodide staining based flow cytometry (reference value: 1%)
HeLa [2] = test: Induction of cell cycle arrest in human HeLa cells assessed as accumulation at S phase at 20 uM after 24 hrs by propidium iodide staining based flow cytometry (reference value: 24%)
L1210 = test: Antiproliferative activity against mouse L1210 assessed as inhibition of cell proliferation after 48 hrs by Coulter counter based cell counting method; conditions: L1210, 48 h
HeLa [3] = test: Induction of cell cycle arrest in human HeLa cells assessed as accumulation at S phase at 100 uM after 24 hrs by propidium iodide staining based flow cytometry (reference value: 24%)
HeLa [4] = test: Induction of cell cycle arrest in human HeLa cells assessed as accumulation at G2/M phase at 100 uM after 24 hrs by propidium iodide staining based flow cytometry (reference value: 31%)
HeLa [5] = test: Induction of cell cycle arrest in human HeLa cells assessed as accumulation at G1 phase at 100 uM after 24 hrs by propidium iodide staining based flow cytometry (reference value: 45%)
[6] = Antiproliferative activity against mouse MBEC assessed as inhibition of cell proliferation after 3 days by Coulter counter based cell counting method; conditions: 72 h
[7] = Antiproliferative activity against BAEC assessed as inhibition of cell proliferation after 3 days by Coulter counter based cell counting method; conditions: Bos taurus, 72 h
HeLa [8] = test: Antiproliferative activity against human HeLa cells assessed as inhibition of cell proliferation after 4 days by Coulter counter based cell counting method; conditions: 96 h
CCRF-CEM = test: Antiproliferative activity against human CEM cells assessed as inhibition of cell proliferation after 96 hrs by Coulter counter based cell counting method
HeLa [9] = test: Induction of cell cycle arrest in human HeLa cells assessed as accumulation at G1 phase at 20 uM after 24 hrs by propidium iodide staining based flow cytometry (reference value: 45%)
[10] = Antiproliferative activity against human HMEC1 cells assessed as inhibition of cell proliferation after 4 days by Coulter counter based cell counting method; conditions: HMEC-1, 96 h
HeLa [11] = test: Induction of cell cycle arrest in human HeLa cells assessed as accumulation at subG1 phase at 20 uM after 24 hrs by propidium iodide staining based flow cytometry (reference value: 1%)
HeLa [12] = test: Induction of cell cycle arrest in human HeLa cells assessed as accumulation at G2/M phase at 20 uM after 24 hrs by propidium iodide staining based flow cytometry (reference value: 31%)
HeLa [13] = test: Induction of cell cycle arrest in human HeLa cells assessed as accumulation at S phase at 0.1 uM after 24 hrs by propidium iodide staining based flow cytometry (reference value: 24%)
HeLa [14] = test: Induction of cell cycle arrest in human HeLa cells assessed as accumulation at subG1 phase at 0.1 uM after 24 hrs by propidium iodide staining based flow cytometry (reference value: 1%)
HeLa [15] = test: Induction of cell cycle arrest in human HeLa cells assessed as accumulation at G1 phase at 0.1 uM after 24 hrs by propidium iodide staining based flow cytometry (reference value: 45%)
HeLa [16] = test: Induction of cell cycle arrest in human HeLa cells assessed as accumulation at G2/M phase at 0.1 uM after 24 hrs by propidium iodide staining based flow cytometry (reference value: 31%)
HeLa [17] = test: Induction of cell cycle arrest in human HeLa cells assessed as accumulation at S phase at 4 uM after 24 hrs by propidium iodide staining based flow cytometry (reference value: 24%)
HeLa [18] = test: Induction of cell cycle arrest in human HeLa cells assessed as accumulation at G1 phase at 4 uM after 24 hrs by propidium iodide staining based flow cytometry (reference value: 45%)
HeLa [19] = test: Induction of cell cycle arrest in human HeLa cells assessed as accumulation at G2/M phase at 4 uM after 24 hrs by propidium iodide staining based flow cytometry (reference value: 31%)
HeLa [20] = test: Induction of cell cycle arrest in human HeLa cells assessed as accumulation at subG1 phase at 4 uM after 24 hrs by propidium iodide staining based flow cytometry (reference value: 1%)

SMILES	Activity (HeLa [1])	Activity (HeLa [2])	IC50 (L1210; read-out: IC50)	Activity (HeLa [3])	Activity (HeLa [4])	Activity (HeLa [5])	IC50 [6]	IC50 [7]	IC50 (HeLa [8])	IC50 (CCRF-CEM)	Activity (HeLa [9])	IC50 [10]	Activity (HeLa [11])	Activity (HeLa [12])	further results
COc1ccc(N(C)c2nc(C)nc3c2nc(C)n3C)cc1	14%	29%	19 µM	15%	63%	8%	8.7 µM	7.4 µM	4.5 µM	6.2 µM	18%	7.3 µM	39%	25%	
CCN(c1ccc(OC)cc1)c1nc(C)nc2c1nc(C)n2C	36%	27%	35 µM	18%	34%	12%	15 µM	11 µM	20 µM	16 µM	39%	8.8 µM	6%	28%	
COc1ccc(N(C)c2nc(C)nc3[nH]c(C)nc23)cc1	11%	27%	229 µM	15%	68%	6%	8.9 µM	8.9 µM	14 µM	23 µM	39%	7.1 µM	5%	31%	
COc1cccc(N(C)c2nc(C)nc3c2nc(C)n3C)c1			> 250 µM				≥ 100 µM	≥ 100 µM	> 250 µM	> 250 µM		≥ 100 µM			
Cc1ccc(N(C)c2nc(C)nc3c2nc(C)n3C)cc1			≥ 250 µM				> 100 µM	> 100 µM	≥ 250 µM	164 µM		> 100 µM			
COc1ccc(N(C)c2nc(C)nc3c2ncn3C)cc1			30 µM				15 µM	9.3 µM	22 µM	21 µM		9.2 µM			
COc1ccc(Nc2nc(C)nc3c2nc(C)n3C)cc1			≥ 250 µM				≥ 100 µM	≥ 100 µM	197 µM	> 250 µM		≥ 100 µM			
COc1cc2c(c(OC)c1OC)-c1ccc(OC)c(=O)cc1[C@@H](NC(C)=O)CC2 [COLCHICINE]							0.031 µM	0.0069 µM		0.031 µM					Activity (HeLa [13]): 10%; IC50 (L1210): 0.014 µM; Activity (HeLa [14]): 6%; Activity (HeLa [15]): 5%; Activity (HeLa [16]): 80%
COc1ccc2c(c1)CCCN2c1nc(C)nc2c1nc(C)n2C	8%	8%	5.1 µM	8%	79%	3%	4.4 µM	2.4 µM	4.4 µM	3.5 µM	3%	2.3 µM	7%	80%	Activity (HeLa [17]): 18%; Activity (HeLa [18]): 35%; Activity (HeLa [19]): 27%; Activity (HeLa [20]): 20%
COc1ccc(N(C)c2ncnc3c2nc(C)n3C)cc1			> 250 µM				≥ 100 µM	≥ 100 µM	> 250 µM	> 250 µM		≥ 100 µM			
Cc1nc(N(C)c2ccc(OC(F)(F)F)cc2)c2nc(C)n(C)c2n1			> 250 µM				> 100 µM	> 100 µM	188 µM	132 µM		> 100 µM			
